Measurements taken from ChEMBL document CHEMBL1201862, “PubChem BioAssay data set” (2004).
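Cultured in 96-well plates, cells were exposed to test compound for 48 hours across five concentrations. Here, GI50 denotes the concentration required for 50% inhibition of growth.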 Calls of active or inactive are those of the source. Rule as the data show it: active = GI50 up to about 1.1 µM and inactive = higher.

Columns and labels:
Test in all cases: NCI-60 cell line screen, 48 h
HT-29 = system: HT-29
RXF 393 = system: RXF 393
DLD-1 = system: DLD-1
HCT-15 = system: HCT-15
NCI-H226 = system: NCI-H226
IGROV-1 = system: IGROV-1
KM12 = system: KM12
CCRF-CEM = system: CCRF-CEM
U-251 = system: U-251
RXF 631 = system: RXF 631
HCC 2998 = system: HCC 2998
UACC-62 = system: UACC-62
SF-295 = system: SF-295
DMS-273 = system: DMS-273
OVCAR-3 = system: OVCAR-3
HCT-116 = system: HCT-116
OVCAR-5 = system: OVCAR-5
HOP-18 = system: HOP-18
HL-60 = system: HL-60
OVCAR-8 = system: OVCAR-8
TK-10 = system: TK-10
K562 = system: K562
LOX IMVI = system: LOX IMVI
DMS-114 = system: DMS-114
Malme-3M = system: Malme-3M
HOP-92 = system: HOP-92
SK-MEL-5 = system: SK-MEL-5
M19-MEL = system: M19-MEL
MOLT-4 = system: MOLT-4
SNB-19 = system: SNB-19
XF498 = system: XF498
NCI-H23 = system: NCI-H23
CAKI-1 = system: CAKI-1
KM-20L2 = system: KM-20L2
HOP-62 = system: HOP-62
SK-MEL-28 = system: SK-MEL-28
SNB-75 = system: SNB-75
NCI-H522 = system: NCI-H522
SN12C = system: SN12C
SF-539 = system: SF-539
NCI-H460 = system: NCI-H460
SF-268 = system: SF-268
SW-620 = system: SW-620
A498 = system: A498
UACC-257 = system: UACC-257
A549 = system: A549
LXFL 529 = system: LXFL 529
SNB-78 = system: SNB-78
RPMI-8226 = system: RPMI-8226
UO-31 = system: UO-31
786-0 = system: 786-0
OVCAR-4 = system: OVCAR-4
EKVX = system: EKVX
ACHN = system: ACHN
M14 = system: M14
SK-MEL-2 = system: SK-MEL-2

COc1ccc(C(=O)C(C(=O)CCC(=O)Nc2ccc(Cl)c(Cl)c2)c2ccc(OC)cc2)cc1 (stereo unspecified)
GI50 (HT-29): > 100 µM (inactive) | GI50 (RXF 393): > 100 µM (inactive) | GI50 (DLD-1): > 100 µM (inactive) | GI50 (HCT-15): > 100 µM | GI50 (NCI-H226): > 100 µM (inactive) | GI50 (IGROV-1): > 100 µM (inactive) | GI50 (KM12): > 100 µM (inactive) | GI50 (CCRF-CEM): > 100 µM (inactive) | GI50 (U-251): > 100 µM (inactive) | GI50 (RXF 631): > 100 µM (inactive) | GI50 (HCC 2998): > 100 µM (inactive) | GI50 (UACC-62): > 100 µM (inactive) | GI50 (SF-295): > 100 µM (inactive) | GI50 (DMS-273): > 100 µM (inactive) | GI50 (OVCAR-3): > 100 µM (inactive) | GI50 (HCT-116): > 100 µM (inactive) | GI50 (OVCAR-5): > 100 µM (inactive) | GI50 (HOP-18): > 100 µM (inactive) | GI50 (HL-60): 97.1 µM (inactive) | GI50 (OVCAR-8): > 100 µM (inactive) | GI50 (TK-10): > 100 µM (inactive) | GI50 (K562): > 100 µM (inactive) | GI50 (LOX IMVI): > 100 µM (inactive) | GI50 (DMS-114): > 100 µM (inactive) | GI50 (Malme-3M): > 100 µM (inactive) | GI50 (HOP-92): > 100 µM (inactive) | GI50 (SK-MEL-5): > 100 µM (inactive) | GI50 (M19-MEL): > 100 µM (inactive) | GI50 (MOLT-4): > 100 µM (inactive) | GI50 (SNB-19): > 100 µM (inactive) | GI50 (XF498): > 100 µM (inactive) | GI50 (NCI-H23): > 100 µM (inactive) | GI50 (CAKI-1): > 100 µM (inactive) | GI50 (KM-20L2): > 100 µM (inactive) | GI50 (HOP-62): > 100 µM (inactive) | GI50 (SK-MEL-28): > 100 µM (inactive) | GI50 (SNB-75): 44.9 µM (inactive) | GI50 (NCI-H522): > 100 µM (inactive) | GI50 (SN12C): > 100 µM (inactive) | GI50 (SF-539): > 100 µM (inactive) | GI50 (NCI-H460): > 100 µM (inactive) | GI50 (SF-268): > 100 µM (inactive) | GI50 (SW-620): > 100 µM (inactive) | GI50 (A498): > 100 µM (inactive) | GI50 (UACC-257): > 100 µM (inactive) | GI50 (A549): > 100 µM (inactive) | GI50 (LXFL 529): > 100 µM (inactive) | GI50 (SNB-78): > 100 µM (inactive) | GI50 (RPMI-8226): > 100 µM (inactive) | GI50 (UO-31): > 100 µM (inactive) | GI50 (786-0): > 100 µM (inactive) | GI50 (OVCAR-4): > 100 µM (inactive) | GI50 (EKVX): > 100 µM (inactive) | GI50 (ACHN): > 100 µM (inactive) | GI50 (M14): > 100 µM (inactive) | GI50 (SK-MEL-2): > 100 µM (inactive)
